Assay results taken from PubChem BioAssay AID743146 (Broad Institute, 2013).
Activity calls are given as the source filed them.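 Rule for the calls: active = fitted half-maximal potency for cell killing at or below the highest valid dose tested for that sample; inconclusive = flat curve with 30 to 70% viability loss, or unreliable fit; inactive = the rest.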

Test system: not listed separately
Test: A549 cell cytotoxicity, dose response, cytotoxicity control, CellTiter-Glo luminescence, dry powder, set 3 (AID 743146)
Settings: A549 viability, CellTiter-Glo ATP luminescence, 72 h; at 26 µM (top of the series)

| Structure (SMILES) | activity change, negative = cytotoxicity |
| --- | --- |
| CC(=O)NCCC(=O)N[C@@H]1CCCc2ccccc21 | 4.17% (inactive) |
| COc1ccccc1C(C)NC(=O)CCNC(=O)c1ccc(Cl)cc1 (stereo not drawn) | 10% (inactive) |
| O=C(CCCNC(=O)c1ccc(OC(F)(F)F)cc1)N[C@@H]1CCCc2ccccc21 | 4.74% (inactive) |
| O=C(CCCNC(=O)c1ccc(C(F)(F)F)cc1)N[C@@H]1CCCc2ccccc21 | -7.77% (inactive) |
| CC(NC(=O)CCNC(=O)c1ccc(Cl)cc1)c1ccc(F)cc1 (stereo not drawn) | 1.56% (inactive) |
| O=C(CCCNC(=O)c1ccc(Cl)c(Cl)c1)N[C@@H]1CCCc2ccccc21 | -2.59% (inactive) |
| O=C(CCCNC(=O)c1ccc(Cl)cc1)N[C@@H]1CCCc2ccccc21 | -5.3% (inactive) |
| O=C(CCNC(=O)c1ccc(Cl)cc1)NC1CCCCC1 | 8.46% (inactive) |
| O=C(CCNC(=O)c1ccc(Cl)cc1)N[C@@H]1CCc2ccccc21 | 0.571% (inactive) |
| CC(NC(=O)C1CCCN(C(=O)c2ccc(Cl)cc2)C1)c1ccccc1 (stereo not drawn) | 5.97% (inactive) |
| C[C@@H](NC(=O)CCNC(=O)c1ccc(Cl)cc1)c1ccccc1 | -3.03% (inactive) |
| NCCC(=O)N[C@@H]1CCCc2ccccc21 | 11.5% (inactive) |
| CC(CC(=O)N(C)C1CCCc2ccccc21)NC(=O)c1ccccc1 (stereo not drawn) | -7.34% (inactive) |
| CC(c1ccccc1)N(C)C(=O)CCNC(=O)c1ccc(Cl)cc1 (stereo not drawn) | 14% (inactive) |
| O=C(CCn1cnc2ccccc2c1=O)NC1CCCc2ccccc21 (stereo not drawn) | -2.5% (inactive) |
| O=C(CCNC(=O)c1ccccc1Cl)NC1CCCc2ccccc21 (stereo not drawn) | -2% (inactive) |

| Structure (SMILES) | activity change, negative = cytotoxicity |
| --- | --- |
| CC(NC(=O)CCNC(=O)c1ccc(Cl)cc1)c1ccc2c(c1)OCO2 (stereo not drawn) | 7.31% (inactive) |
| O=C(CNC(=O)c1ccc(Cl)cc1)N[C@@H]1CCCc2ccccc21 | -3.21% (inactive) |
| COc1ccccc1C(=O)NCCC(=O)NC1CCCc2ccccc21 (stereo not drawn) | 5.71% (inactive) |
| CC(CC(=O)NC1CCCc2ccccc21)NC(=O)c1ccccc1 (stereo not drawn) | 0.372% (inactive) |
| O=C(NC1CCc2ccccc21)C1CCCN(C(=O)c2ccc(Cl)cc2)C1 (stereo not drawn) | -1.86% (inactive) |
| CN(C(=O)CCNC(=O)c1ccc(F)cc1F)C1CCCc2ccccc21 (stereo not drawn) | 8.93% (inactive) |
| O=C(CNC(=O)c1ccc(OC(F)(F)F)cc1)N[C@@H]1CCCc2ccccc21 | 8.39% (inactive) |
| CC(C)(C)OC(=O)NCCC(=O)N[C@H]1CCCc2ccccc21 | -0.649% (inactive) |
| O=C(CNC(=O)c1ccc(C(F)(F)F)cc1)N[C@@H]1CCCc2ccccc21 | 11% (inactive) |
| O=C(CNC(=O)c1ccc(Cl)c(Cl)c1)N[C@@H]1CCCc2ccccc21 | -1.02% (inactive) |
| O=C(Cc1ccc(Cl)cc1)NCCC(=O)N[C@@H]1CCCc2ccccc21 | -2.28% (inactive) |
| O=C(NC1CCOc2ccccc21)C1CCCN(C(=O)c2ccc(Cl)cc2)C1 (stereo not drawn) | 11.1% (inactive) |
| O=C(CCNC(=O)c1ccc(F)cc1)N[C@@H]1CCCc2ccccc21 | -10.3% (inactive) |
| Cc1cccc(C(=O)NCCC(=O)NC2CCCc3ccccc32)c1 (stereo not drawn) | 9.52% (inactive) |
| O=C(CCNC(=O)c1ccccc1)N[C@@H]1CCCc2ccccc21 | -10.3% (inactive) |
| CC(C)(C)OC(=O)NCCC(=O)N[C@@H]1CCCc2ccccc21 | 6.05% (inactive) |

Test system: A549 viability, CellTiter-Glo ATP luminescence, 72 h
Test: as above
Settings: not given

| Structure (SMILES) | AC50 |
| --- | --- |
| O=C(CCNC(=O)c1ccc(Cl)cc1)NC1CCCc2ccccc21 (stereo not drawn) | 26 µM |
